Entries after “also recorded” stand apart in the source; their conditions may differ. Like-named read-outs stand apart in the source and are kept apart here.
Key:
[1] = system: HSD fed diabetic rats; test: HSD fed insulin resistant diabetic rats; format: in vivo, rat
Procedure: Approximately 100 mg of soleus muscle tissue was taken and lysed with RIPA lysis buffer. Lysates were resolved on 12% SDS–polyacrylamide gels and were transferred to PVDF membrane (Millipore, USA). Membrane was blocked with 5% nonfat milk in TRIS buffered saline (TBS; 10 mM TRIS (pH 8.0), 150 mM NaCl) for 1 hour and probed with primary antibody of interest: phospho-AMPK (Thr^172) (1:1000; Cell Signaling Technology, USA), phospho-ACC (Ser^79) (1:1000; Cell Signaling Technology, USA), total AMPK (1:1000; Cell Signaling Technology, USA), total ACC (1:1000; Cell Signaling Technology, USA), and total Actin (1:1000; Santa Cruz Biotechnology, USA). Subsequently, membranes were incubated with corresponding HRP-conjugated secondary antibodies. The chemiluminescence signals were captured on photographic films using an enhanced chemiluminescence (Thermo Scientific, USA).The loading controls of phospho-ACC and phospho-AMPK in Fig. 6J were probed in parallel gels.
Twelve weeks old healthy colony bred male Wistar rats, weighing about 150–200 grams were purchased from the animal research facility (Cadila Pharma limited, Ahmedabad, India) and maintained at the animal house of Institute of pharmacy (Nirma University, India). All the methods were carried out in accordance with the approved guidelines. Experimental protocol involving animals was reviewed and approved by the Animal Ethical Committee of Institute of Science, Nirma University, Ahmedabad, India (Protocol No. IS/FAC/14-1/021) Animals were maintained in polypropylene cages in a standard photoperiod (12 h light:12 h dark cycle) and temperature (27 ± 1 °C) controlled room with the provision of laboratory food (Gold Mohur feeds Ltd, New Delhi, India) and water ad libitum. Animals were segregated into three different experimental groups with 6 animals in each as follows: non-diabetic group with standard chow diet (control group, CD), Diabetic group with high sucrose diet (65%, treated group, HSD)[84] and HSD with AMPK Activator-3 treated group (10 mg/kg body weight of animal). Post HSD induction animals were treated with AMPK Activator-3 for 30 days.
Animals were subjected to an OGTT at a beginning of the treatment (0 day) and a day before the end of the experiment (30 day). OGTT was performed after 12 h of the fasting. Briefly, after fasting, animals were given a glucose load (2 g/kg) orally. Blood samples were collected from the animal tail vein at 0 min (before glucose administration) and at 15, 30, 60, 90 and 120 min after glucose administration. Glucose concentration was determined using a CareSensN blood glucose monitor and glucose strips. Area under the curve for glucose (AUCglucose) was calculated using the trapezoidal rule.
Approximately, 1 ml of the blood samples was collected from the retro-orbital plexus of the animals under the mild anesthesia using diethyl ether. Blood was then transferred to the microfuge tubes for separation of plasma and serum at 0 day (start of the treatment) and the last day of the experiment (30 day). Total cholesterol and triglycerides levels were estimated from plasma using a diagnostic kit from Accucare India Ltd according to the protocol mentioned by the manufacturer.
Plasma FFA was estimated using chloroform and triethyalanomine extraction method by measuring the absorbance at 440 nm. The stearic acid was used as standard fatty acid and detailed protocol was performed as mentioned[85],[86]. […]

[2] = system: PFK1; test: PFK activity assay kit; format: biochemical; details: Activator-3 at 10 µM (≤10 µM)
[3] = target: human recombinant AMPK α2β1γ1 (Homo sapiens, UniProt P54619); test: Phosphatase protection assay (PP2C); format: biochemical; set-up: host or cells: baculovirus expression; details: 10–100 nM
Sequence of human recombinant AMPK α2β1γ1 (P54619 whole entry): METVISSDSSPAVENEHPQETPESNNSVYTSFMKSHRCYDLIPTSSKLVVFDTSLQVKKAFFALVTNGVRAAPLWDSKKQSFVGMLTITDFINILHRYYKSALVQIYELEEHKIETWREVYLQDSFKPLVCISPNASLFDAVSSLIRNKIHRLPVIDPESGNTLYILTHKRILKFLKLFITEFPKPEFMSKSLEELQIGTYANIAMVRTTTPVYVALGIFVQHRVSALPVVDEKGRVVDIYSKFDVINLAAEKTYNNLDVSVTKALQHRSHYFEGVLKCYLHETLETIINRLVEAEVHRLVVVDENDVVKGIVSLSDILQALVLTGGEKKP
Sequence of human recombinant AMPK α2β1γ1 (P54646 whole entry partner): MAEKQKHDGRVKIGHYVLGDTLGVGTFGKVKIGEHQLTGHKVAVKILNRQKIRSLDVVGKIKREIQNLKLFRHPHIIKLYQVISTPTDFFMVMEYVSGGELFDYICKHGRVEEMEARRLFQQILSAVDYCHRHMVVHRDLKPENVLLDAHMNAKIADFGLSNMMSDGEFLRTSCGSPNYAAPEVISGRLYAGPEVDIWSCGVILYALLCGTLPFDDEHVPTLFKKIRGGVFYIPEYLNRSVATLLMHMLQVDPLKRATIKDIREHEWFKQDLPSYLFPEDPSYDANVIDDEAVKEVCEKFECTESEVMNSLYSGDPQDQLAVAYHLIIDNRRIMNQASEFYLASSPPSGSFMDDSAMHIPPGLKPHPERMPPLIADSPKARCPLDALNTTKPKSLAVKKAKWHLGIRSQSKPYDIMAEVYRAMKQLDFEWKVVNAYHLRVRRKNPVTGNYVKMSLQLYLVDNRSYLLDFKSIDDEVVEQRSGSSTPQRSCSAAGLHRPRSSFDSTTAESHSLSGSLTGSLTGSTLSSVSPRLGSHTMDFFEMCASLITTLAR
Sequence of human recombinant AMPK α2β1γ1 (Q9Y478 whole entry partner): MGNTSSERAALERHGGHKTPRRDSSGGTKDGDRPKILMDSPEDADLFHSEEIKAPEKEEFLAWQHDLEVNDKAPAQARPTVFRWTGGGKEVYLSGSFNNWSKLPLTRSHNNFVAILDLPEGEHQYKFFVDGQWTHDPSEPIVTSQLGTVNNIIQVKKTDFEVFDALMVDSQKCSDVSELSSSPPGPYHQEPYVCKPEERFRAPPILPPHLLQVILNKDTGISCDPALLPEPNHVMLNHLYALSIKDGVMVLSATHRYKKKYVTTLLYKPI
Procedure: The reaction was stopped by adding SDS-loading dye immediately to the reaction mixtures followed by boiling the samples at 95 °C for 10′. These samples were run on a 10% SDS-PAGE and probed for AMPK and pAMPK (1:1000; Cell Signaling Technologies).

[4] = Pharmacokinetic study in male rats; format: in vivo, rat
Procedure: Male SD rats were orally administered 30 mg/Kg of Activator-3. Blood and brain samples were collected at specified time points and were analyzed for Activator-3 using a LC-MS/MS method[64]–[66]. […] The human plasma protein binding was ~80% (data not shown). […] Systemic exposure of Activator-3 was very high in plasma compared to brain.
Male SD rats were orally administered with 30 mg/Kg of Activator-3. Blood and brain samples were collected at specified time points and were analyzed for Activator-3 using optimized LC-MS/MS method[64]–[66].

[5] = target: T1, LKB1 (Homo sapiens, UniProt Q15831); test: Cell-free kinase assay (Kinexus); format: biochemical
T1 construct: purchased Kinexus, Canada (screening service)
T1 sequence (Q15831 whole entry, species assumed): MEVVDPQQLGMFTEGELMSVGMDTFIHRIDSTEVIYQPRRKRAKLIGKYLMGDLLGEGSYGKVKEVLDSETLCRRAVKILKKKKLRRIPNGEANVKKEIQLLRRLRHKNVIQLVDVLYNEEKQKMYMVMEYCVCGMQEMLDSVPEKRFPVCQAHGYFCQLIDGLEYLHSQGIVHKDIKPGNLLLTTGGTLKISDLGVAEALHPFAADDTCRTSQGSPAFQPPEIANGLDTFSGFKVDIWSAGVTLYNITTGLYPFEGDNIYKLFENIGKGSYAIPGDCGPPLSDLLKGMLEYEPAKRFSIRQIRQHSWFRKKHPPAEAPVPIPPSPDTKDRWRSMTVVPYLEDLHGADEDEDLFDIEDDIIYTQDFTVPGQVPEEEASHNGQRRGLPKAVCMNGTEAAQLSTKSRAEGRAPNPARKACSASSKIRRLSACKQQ
T1 sequence (Q7RTN6 whole entry partner, species assumed): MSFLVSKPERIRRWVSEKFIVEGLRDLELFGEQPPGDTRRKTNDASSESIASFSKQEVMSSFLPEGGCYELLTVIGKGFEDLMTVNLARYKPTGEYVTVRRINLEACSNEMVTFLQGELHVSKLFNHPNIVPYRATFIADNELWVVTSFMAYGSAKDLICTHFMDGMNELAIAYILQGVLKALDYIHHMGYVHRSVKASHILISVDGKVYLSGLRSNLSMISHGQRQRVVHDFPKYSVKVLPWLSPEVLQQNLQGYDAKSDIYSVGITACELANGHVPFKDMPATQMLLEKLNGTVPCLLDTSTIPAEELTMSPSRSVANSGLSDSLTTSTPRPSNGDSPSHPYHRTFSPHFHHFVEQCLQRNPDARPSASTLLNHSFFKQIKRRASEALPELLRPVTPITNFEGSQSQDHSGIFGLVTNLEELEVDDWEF
T1 sequence (Q9Y376 whole entry partner, species assumed): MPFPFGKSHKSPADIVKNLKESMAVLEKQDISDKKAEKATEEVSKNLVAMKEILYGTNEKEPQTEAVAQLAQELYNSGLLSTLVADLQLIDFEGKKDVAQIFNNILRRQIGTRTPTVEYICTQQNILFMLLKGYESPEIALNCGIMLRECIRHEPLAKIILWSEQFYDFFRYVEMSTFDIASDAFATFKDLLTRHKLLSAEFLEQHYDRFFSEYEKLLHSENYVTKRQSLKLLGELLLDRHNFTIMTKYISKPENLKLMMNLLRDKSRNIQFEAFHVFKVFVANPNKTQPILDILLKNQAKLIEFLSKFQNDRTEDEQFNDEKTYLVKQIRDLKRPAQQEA
Procedure: To determine whether Activator-3 affects the activity of any other protein kinases, we screened it in cell-free assays against a panel of 100 protein kinases (Kinexus, Canada). […] Three kinases, DDR1 (−79%), SRC (−71%) and ALK5 (−61%) were inhibited by Activator-3 by more than 50% at 10 µM.
Table S2: Activity change observed in the LKB1 Kinase tested against Activator-3 at 200μM
Protein Kinase (CPM) (CPM) % Change
Table S3: Evaluating the goodness of the representative structure obtained from MD
simulations using PROCHECK server.
Ramchandran Map No. of resides Percentage
Most favored regions 889 85.8%
Additional allowed regions 128 12.4%
Generously allowed regions 13 1.3%
Disallowed regions 6 0.6%
Non-glycine and non-proline residues 1036 100.0%
Table S4: Heterotrimeric human AMPK crystal structures available in PDB.
PDBID Isoform Organism Inhibitor and/or activator Modifications References
Staurosporine, 108-SEP Lagendorf et al. 20161
5EZV α2β1γ1 Homo sapiens C2Z, C1V, Staurosporine 172-TPO […]

[6] = 10 mg/kg oral once a day, 30th day

O=C(O)Cc1csc(Nc2ccc(C(F)(F)F)cc2)n1 [Activator-3, 2-[2-(4-(trifluoromethyl)phenylamino)thiazol-4-yl]acetic acid]
glucose concentration in OGTT vs HSD group [1, 6]: significantly reduced | plasma free fatty acid vs HSD group [1, 6]: significantly lower | plasma total cholesterol vs HSD group [1, 6]: significantly lower | HSD induced body weight gain ([1]; 10 mg/kg oral once a day, 30 days, p < 0.05): decreased | phosphorylation of AMPK and ACC in soleus muscle ([1]; 10 mg/kg/day for 30 days, western blot): restored | effect on PFK1 activity [2]: unaffected; also recorded: no effect | protection against PP2C mediated dephosphorylation of Thr172 AMPK [3]: provided protection | t1/2 ([4]; male SD rats, oral 30 mg/Kg, plasma, 30 mg/kg): ~ 4 h | level in brain / brain penetration ([4]; male SD rats, oral 30 mg/Kg, 30 mg/kg): No significant level; also recorded: no brain penetration | half-life ([4]; male, SD, rat, plasma, po, 30 mg/kg, male SD rats, oral 30 mg/Kg): 247 min | bioavailability ([4]; rat, oral): good bioavailability | Cmax ([4]; rat, plasma, male SD rats, oral 30 mg/Kg, read-out: Cmax in plasma): ~109 µg/mL | Cmax ([4]; rat, plasma, male SD rats, oral 30 mg/Kg, read-out: Cmax in plasma, molar): ~360 µM | AUC ([4]; rat, plasma, male SD rats, oral 30 mg/Kg, read-out: Systemic exposure in plasma (AUC)): ~978 µg·h/mL | AUC ([4]; rat, plasma, male SD rats, oral 30 mg/Kg, read-out: Systemic exposure in plasma (AUC), molar): ~3300 µM·h | effect on kinase activity ([5]; 10 µM): not affected | % Change ([5]; 200μM, Control 10984 CPM, Test 11638 CPM): 5%

From paper PMC6018554, “2-[2-(4-(trifluoromethyl)phenylamino)thiazol-4-yl]acetic acid (Activator-3) is a potent activator of AMPK” (Scientific Reports, 2018)
